Results taken from patent US10590166B2, “Peptides useable for treating cancer” (Allegro Pharmaceuticals, LLC, priority 2009, dated 2020).
“Also recorded” adds a separate entry of the source. Square brackets hold non-standard residues; d marks the D form. Peptide text beside a SMILES is read from it. Cya = N[CH](CS(=O)(=O)O)C(=O)O

Legend:
Type in all cases: in vivo
Rabbits = system: Rabbits
Method: In this example, the PVD-Inducing Effects of RGD Peptides and Glycyl-Arginyl-Glycyl-Cysteic-Threonyl-Proline-COOH (RG Cysteic Acid Peptide; GRG Cysteic Acid TP; Compound 1) (SEQ ID NO: 2) were compared in rabbits. The protocol for this study was as follows:
Animal Model • a) 20 Male and Female Rabbits • b) Weighing approximately 1.5-2.5 kg. • c) Divide into 2 groups
i) 10 Rabbits were injected intravitreally with 2.5% RGD solution at pH=6.5 • a) 10 Right Eye injected with 2.5% RGD solution • b) 5 Left Eye used as BSS Control • c) 5 Left Eyes injected with 2.5% RGD+0.02% EDTA at pH=6.5
ii) 10 Rabbits were injected intravitreally with 2.5% RGCysteic solution at pH=6.5 • a) 10 Right Eye injected with 2.5% RGCysteic solution at pH=6.5 • b) 10 Left Eye injected with 2.5% RGCysteic solution+0.02% EDTA at pH=6.5
Active Chemicals • d) Sodium EDTA—99.0-100.5% from Spectrum Chemical Corp. • e) RG Cysteic Acid—cGMP supplier (Purity>98%). • f) RGD—cGMP supplier (Purity>98%). • g) BSS solution
Both the RG Cysteic Acid, RGD, RG Cysteic Acid+Sodium EDTA, RGD+Sodium EDTA, and the BSS solutions were injected into the vitreous cavity 24 hours prior to surgery. The rabbits ([…]) were anesthetized with an intramuscular injection of 2.0 ml of 1:1 combination of xylazine (100 mg/ml) and Ketamine hydrochloride (100 mg/ml). Pupils are dilated with topical cyclopentolate hydrochloride 1% and Phenylephrine hydrochloride 10%.
All animals were initially examined with slit lamp biomicroscopy and indirect ophthalmoscopy to exclude any animals with pre-existing vitreoretinal abnormalities. The intravitreal injection of 0.10 cc was administered 2 mm posterior to the limbus in the supranasal quadrant using a 30-gauge needle attached to a 1.0 cc syringe. Care must be taken to avoid damage to the lens or retina.
Twenty four hours following injection and immediately before initiation of a mechanical vitrectomy, a B-scan ultrasonography was performed to determine the status of the posterior vitreous and also the liquefaction of the vitreous. A two-port pars plana vitrectomy was performed using an infusion fiberoptic and a vitreous cutter attached to a vitrectomy unit. Following a 30 second core vitrectomy, the vitreous cutter was directed to the peripapillary retinal surface where, using low aspiration (<30 mmHg) a separation of the posterior cortical vitreous from the retinal surface was attempted in 4 quadrants. The sclerotomies were sutured and a postoperative B-Scan ultrasonography was carried out to determine the presence and extent of any PVD present in each quadrant. The animals were euthanized with intracardiac sodium pentobarbital injections, and the eyes were immediately enucleated.
; • Grade 0. a) No detachment of the posterior Vitreous is observed. • b) Vitreous Liquefaction • Grade 1. a) Consists of eyes in which the vitreous is detached in 2 or less quadrants. • b) Vitreous Liquefaction • Grade 2. a) Consists of eyes in which the vitreous is detached in 3 or more quadrants, but with remaining focal attachments along the medullary rays • b) Vitreous Liquefaction • Grade 3. a) Consists of eyes in which the vitreous is totally detached from the retinal surface • b) Vitreous Liquefaction
Care was taken to avoid damage to the adjacent retina and lens. The eyes were immersed in 2% paraformaldehyde plus 2.5% glutaraldehyde for a minimum of 24 hours at 4 degrees Celsius. A unique posterior calotte was removed, dehydrated in methanol, and dried in carbon dioxide to the critical point, sputter-coated in gold and photographed using the scanning electron microscope.

rho/VEGF mice = test: Subretinal neovascularization in transgenic rho/VEGF mice expressing human VEGF; settings: 25 μg, single intraocular injection, seven days post-dose, 3 animals
Method: Transgenic mice in which the rhodopsin promoter drives expression of human VEGF in photoreceptors (rho/VEGF mice) were randomized into separate treatment groups and studies were performed to provide the following comparisons:
Pretreatment measurements of the area of subretinal neovascularization were made on each animal using image analysis by a masked observer. Each animal received its designated treatment in a single intraocular injection. Seven days post-dose, measurements of the area of subretinal neovascularization were again made and compared to the pre-dose measurements to determine the change in subretinal neovascularization area. Also, the animals were sacrificed and the retinas were dissected, immunostained with GSA lectin and examined by fluorescence microscopy.

[1] = system: Pigmented New Zealand Rabbits; test: Ocular toxicity dose escalation, multiple intravitreal injections of Compound 1 (Table E); settings: up to 3 intravitreal injections of 2.5, 5.0 or 10.0 mg/100 μL
New Zealand Rabbits = test: Ocular toxicity of subconjunctival Compound 1 (Table C); settings: single subconjunctival 5.0 mg/100 μL, 48 hour follow up
[2] = Table B, single intravitreal 2.5 mg/100 μL, 24 hour follow up
[3] = Table B, single intravitreal 2.5 mg/100 μL, 24 hour follow up, share of eyes

## CC(O)C(NC(=O)C(CS(=O)(=O)O)NC(=O)CNC(=O)C(CCCNC(=N)N)NC(=O)CN)C(=O)N1CCCC1C(=O)O (stereo not drawn) [Compound 1, Glycinyl-Arginyl-Glycinyl-Cysteic-Threonyl-Proline-COOH] (H-GRG[Cya]TP-OH; configuration not given here)
Rabbits; 2.5% intravitreal 0.10 cc, OD treated eye, 24 hours after injection, one value per animal, listed as RG Cysteic Acid
  PVD grade (postoperative B-scan): Grade 3 -; also recorded: Grade 2 - (Consists of eyes in which the vitreous is detached in 3 or more quadrants, but with remaining focal attachments along the medullary rays); also recorded: Grade 1 - (Consists of eyes in which the vitreous is detached in 2 or less quadrants.)
Rabbits; 2.5% intravitreally, 24 hours
  liquefaction of the vitreous: completely liquefied
Rabbits; 2.5% intravitreally, in 24 hours
  separation of the vitreous from the retina: complete separation of the vitreous from the retina
Rabbits; [2]
  Ocular toxicity: RPE toxicity: No RPE toxicity
  Ocular toxicity: cataract formation: No cataract formation
  Ocular toxicity: exudates: No exudates
  Ocular toxicity: inflammation: No inflammation
  Ocular toxicity: retinal hemorrhage: No retinal hemorrhage
  Ocular toxicity: retinal tears, breaks or detachments: No retinal tears, breaks
  Ocular toxicity: retinal vascular compromise: No retinal vascular
Rabbits; [3]
  Complete Liquefaction: PVD - 80% Complete
  Total PVD: Group 1: - 60% Total
Rabbits; rabbits, 2.5% intravitreal
  activity in inducing complete PVD and liquefying the vitreous, compared with RGD: equal or slightly better than that of RGD
  activity when administered with 0.02% Sodium Edetate: not altered
  adverse effects from the intravitreal injection: no adverse effects or adverse safety effects
rho/VEGF mice
  greater reduction in subretinal neovascularization area than control animals (Phosphate Buffered Saline): 37.06%
[1]
  Tonometry, average for treated eyes: 12.7 mmHg average
[1]; sacrifice Day 7, 37 or 90
  Ocular toxicity: RPE toxicity: No RPE toxicity
  Ocular toxicity: cataract formation: No cataract
  Ocular toxicity: exudates: No exudates
  Ocular toxicity: inflammation: No inflammation
  Ocular toxicity: retinal hemorrhage: No retinal
  Ocular toxicity: retinal tears, breaks or detachments: No retinal tears,
  Ocular toxicity: retinal vascular compromise: No retinal vascular
New Zealand Rabbits
  Ocular toxicity: RPE toxicity: No RPE toxicity
  Ocular toxicity: cataract formation: No cataract
  Ocular toxicity: exudates: No exudates
  Ocular toxicity: inflammation: No inflammation
  Ocular toxicity: retinal hemorrhage: No retinal
  Ocular toxicity: retinal tears, breaks or detachments: No retinal tears,
  Ocular toxicity: retinal vascular compromise: No retinal vascular
New Zealand Rabbits; 3 eyes
  Total PVD: 0% Total PVD
  Vitreous liquefaction: No liquefaction
